Measurements from patent publication US20250221966A1, “RXFP1 AGONISTS” (BRISTOL-MYERS SQUIBB COMPANY, priority 2021, published 2025).

Molecular target: T1, human RXFP1 (Homo sapiens, UniProt Q9HBX9)
T1 construct: expressed in transfected cells
T1 sequence (Q9HBX9 1-757): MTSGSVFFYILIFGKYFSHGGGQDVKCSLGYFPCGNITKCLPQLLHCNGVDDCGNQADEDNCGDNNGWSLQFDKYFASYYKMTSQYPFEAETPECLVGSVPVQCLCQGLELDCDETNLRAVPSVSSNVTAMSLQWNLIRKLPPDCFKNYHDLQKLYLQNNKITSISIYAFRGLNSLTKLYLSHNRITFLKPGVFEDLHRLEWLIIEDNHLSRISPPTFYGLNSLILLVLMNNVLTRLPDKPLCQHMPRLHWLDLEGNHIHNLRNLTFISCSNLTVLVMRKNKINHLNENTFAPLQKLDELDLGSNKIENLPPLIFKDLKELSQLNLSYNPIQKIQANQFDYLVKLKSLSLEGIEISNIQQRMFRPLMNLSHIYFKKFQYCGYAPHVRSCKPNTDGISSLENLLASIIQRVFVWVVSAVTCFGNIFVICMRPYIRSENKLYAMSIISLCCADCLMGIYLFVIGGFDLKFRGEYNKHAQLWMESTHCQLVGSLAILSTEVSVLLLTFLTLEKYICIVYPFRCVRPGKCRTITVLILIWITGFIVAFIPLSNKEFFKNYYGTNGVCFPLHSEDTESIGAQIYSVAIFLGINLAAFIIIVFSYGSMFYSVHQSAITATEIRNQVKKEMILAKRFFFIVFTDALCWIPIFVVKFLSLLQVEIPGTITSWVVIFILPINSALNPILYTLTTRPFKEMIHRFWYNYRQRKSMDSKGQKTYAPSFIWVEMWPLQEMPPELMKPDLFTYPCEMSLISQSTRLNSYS
Assay: RXFP1 cAMP assay (hRXFP1 HEK293 cAMP assay, HTRF)
Format: cell-based
Details: HEK293 cells stably expressing human RXFP1, 30 min at room temperature, read-out: cAMP hRXFP1 HEK293 Assay EC50
Method in brief: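 Intracellular cAMP was read by HTRF, with potency fitted to a 4-parameter logistic curve. Compound exposure (0.010 nM–50 μM final, 2% DMSO) lasted 30 min at room temperature. Cells were hRXFP1-HEK293 at 1500 per well in IBMX-containing (0.5 mM) HEPES-buffered HBSS.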

| EC50 [nM] | Structure (SMILES) |
| --- | --- |
| 86.6 | COc1ccc(C2=NOC(C)(C)N2C(C)C)cc1C(=O)N[C@H]1[C@@H](C(=O)Nc2ccc(F)c(C(F)(F)F)c2)[C@H]2CC[C@@H]1/C2=C\C1CC1 [Example 591] |
| 1.6 | COc1ccc(-c2cc([C@H](OC(=O)NC3CC3)C(F)(F)F)ccc2F)cc1C(=O)N[C@H]1[C@@H](C(=O)Nc2ccc(F)c(C(F)(F)F)c2)[C@H]2CC[C@@H]1/C2=C\CC(C)C [compound 929] |
| 1.7 | COc1ccc(-c2cc(C(OC(=O)NC3CCC3)C(=O)O)ccc2F)cc1C(=O)N[C@H]1[C@@H](C(=O)Nc2ccc(F)c(C(F)(F)F)c2)[C@H]2CC[C@@H]1/C2=C\C(C)C (some centres unmarked) [compound 938] |
| 2 | COc1ccc(C2=NOC3COCC23)cc1C(=O)N[C@H]1[C@@H](C(=O)Nc2cc(OC(F)(F)F)ccc2F)[C@H]2CC[C@@H]1/C2=C\C1CC1 (some centres unmarked) [compound 762] |
| 4.7 | COc1ccc(C2=NOC3CC(C(O)C(F)(F)F)CC23)cc1C(=O)N[C@H]1[C@@H](C(=O)Nc2ccc(F)c(C(F)(F)F)c2)[C@H]2CC[C@@H]1/C2=C\C1CC1 (some centres unmarked) [compound 856] |
| 3.2 | O=C(N[C@H]1[C@@H](C(=O)Nc2ccc(F)c(C(F)(F)F)c2)[C@H]2CC[C@@H]1/C2=C\C1CC1)c1cc(C2=NOC3CC(CO)CC23)cc(F)c1OCC1CC1 (some centres unmarked) [compound 794] |
| 102 | COc1ccc(C2=NOC(C(C)O)C2)cc1C(=O)N[C@H]1[C@@H](C(=O)Nc2ccc(F)c(C(F)(F)F)c2)[C@H]2CC[C@@H]1/C2=C\C1CC1 (single isomer, unassigned) [compound 598] |
| 130 | COc1ccc(C2=NOC3COCC23)cc1C(=O)N[C@H]1[C@@H](C(=O)N[C@@H](C)C2(C)CC2)[C@H]2CC[C@@H]1/C2=C\C1CC1 (some centres unmarked) [compound 609] |
| 4.1 | COc1ccc(C2=NOC3CC(CO)CC23)cc1C(=O)N[C@H]1[C@@H](C(=O)NC23CC(C)(C2)C3)[C@H]2CC[C@@H]1/C2=C\C1CC1 (some centres unmarked) [compound 774] |
| 285 | COc1ccc(C2=NOC3COCC23)cc1C(=O)N[C@H]1[C@@H](C(=O)NC2(Cc3ccccc3)CC2)[C@H]2CC[C@@H]1/C2=C\C1CC1 (some centres unmarked) [compound 653] |
| 7 | COc1ccc(-c2cc(C3OC(=O)N(C)C3=O)ccc2F)cc1C(=O)N[C@@H]1C2CCC(/C2=C/C2CC2)[C@@H]1C(=O)Nc1ccc(F)c(C(F)(F)F)c1 (some centres unmarked) [compound 173] |
| 65 | COc1ccc(C2CCOCC2)cc1C(=O)NC1C2CCC(/C2=C/C2CCC2)C1C(=O)Nc1ccc(F)c(C(F)(F)F)c1 (centres unmarked) [compound 369] |
| 1750 | O=C(N[C@H]1[C@@H](C(=O)Nc2ccc(F)c(C(F)(F)F)c2)[C@H]2CC[C@@H]1/C2=C\C1CC1)c1ccc(F)c(C2=NOC3COCC23)c1 (some centres unmarked) [compound 714] |
| 160 | COc1cc(F)c(F)cc1C(=O)N[C@@H]1C2CCC(/C2=C/c2ccccc2F)[C@@H]1C(=O)Nc1ccc(F)c(C(F)(F)F)c1 (some centres unmarked) [compound 54] |
| 1300 | COc1ccc(C2=NOC3C(O)CCC23)cc1C(=O)N[C@H]1[C@@H](C(=O)Nc2ccc(F)c(C(F)(F)F)c2)[C@H]2CC[C@@H]1/C2=C\C1CC1 (single isomer, unassigned) [compound 706] |
| 1.4 | COc1c(F)cc(C2=NOC3CC(CO)CC23)cc1C(=O)N[C@H]1[C@@H](C(=O)Nc2ccc(F)c(C(F)(F)F)c2)[C@H]2CC[C@@H]1/C2=C\CCC(F)(F)F (some centres unmarked) [compound 792] |
| 120 | COc1cc(F)c(F)cc1C(=O)N[C@@H]1C2CCC(/C2=C/c2cccc(Cl)c2)[C@@H]1C(=O)Nc1ccc(F)c(C(F)(F)F)c1 (some centres unmarked) [compound 17] |
| 367 | COc1ccc(C2=NOC3COCC23)cc1C(=O)N[C@H]1[C@@H](C(=O)NC2CCC(C#N)C2)[C@H]2CC[C@@H]1/C2=C\C1CC1 (some centres unmarked) [Example 664] |
| 34.9 | COc1ccc(C2=NOC3CC(CO)CC23)cc1C(=O)N[C@H]1[C@@H](C(=O)Nc2ccc(F)c(C(F)(F)F)c2)[C@H]2CC[C@@H]1C2CC(F)(F)F (some centres unmarked) [compound 550] |
| 1100 | CC(C)=C1C2CCC1[C@H](C(=O)Nc1ccc(F)c(C(F)(F)F)c1)[C@@H]2NC(=O)c1ccccc1OC(C)C (some centres unmarked) [compound 115] |
| 570 | COc1cc(F)c(F)cc1C(=O)N[C@@H]1C2CCC(/C2=C/c2cnn(Cc3ccccc3)c2)[C@@H]1C(=O)Nc1ccc(F)c(C(F)(F)F)c1 (some centres unmarked) [compound 61] |
| 78.3 | COc1ccc(C2=NOC3COCC23)cc1C(=O)N[C@H]1[C@@H](C(=O)NCc2ccccc2C)[C@H]2CC[C@@H]1/C2=C\C1CC1 (some centres unmarked) [compound 585] |

| EC50 [nM] | Structure (SMILES) |
| --- | --- |
| 53 | COc1ccc(-c2ccc3[nH]cc(C(=O)O)c3c2)cc1C(=O)N[C@@H]1C2CCC(/C2=C/C(F)(F)F)[C@@H]1C(=O)Nc1ccc(F)c(C(F)(F)F)c1 (some centres unmarked) [compound 295] |
| 19 | COc1cc(F)c(F)cc1C(=O)N[C@@H]1C2CCC(/C2=C/c2ccsc2)[C@@H]1C(=O)Nc1ccc(F)c(C(F)(F)F)c1 (some centres unmarked) [compound 36] |
| 3200 | COc1cc(F)c(F)cc1C(=O)N[C@@H]1C2CCC(/C2=C/c2ccccc2C#N)[C@@H]1C(=O)Nc1ccc(F)c(C(F)(F)F)c1 (some centres unmarked) [compound 68] |
| 11 | COc1ccc(-c2cc(C(C)O)on2)cc1C(=O)N[C@@H]1C2CCC(/C2=C/C2CC2)[C@@H]1C(=O)Nc1ccc(F)c(C(F)(F)F)c1 (some centres unmarked) [compound 424] |
| 171 | COc1cc(C2CC2)c(C2=NOC3COCC23)cc1C(=O)N[C@H]1C(C(=O)Nc2ccc(F)c(C(F)(F)F)c2)[C@H]2CC[C@@H]1/C2=C\C1CC1 (single isomer, unassigned) [Example 626] |
| 2.7 | COc1c(F)cc(C2=NOC3CC(C(C)O)CC23)cc1C(=O)N[C@H]1[C@@H](C(=O)Nc2ccc(F)c(C(F)(F)F)c2)[C@H]2CC[C@@H]1/C2=C\C1CC1 (some centres unmarked) [compound 850] |
| 118 | COc1ccc(C2=NOC3COCC23)cc1C(=O)N[C@H]1[C@@H](C(=O)NC2CC3(C2)CC(F)(F)C3)[C@H]2CC[C@@H]1/C2=C\C1CC1 (some centres unmarked) [compound 605] |
| 1400 | COC(=O)N1CCC=C(c2ccc(OC)c(C(=O)N[C@@H]3C4CCC(C4=C(C)C)[C@@H]3C(=O)Nc3ccc(F)c(C(F)(F)F)c3)c2)C1 (some centres unmarked) [Example 134] |
| 241 | O=C(N[C@H]1[C@@H](C(=O)Nc2ccc(F)c(C(F)(F)F)c2)[C@H]2CC[C@@H]1/C2=C\C1CC1)c1cccc(C2=NOC3COCC23)c1 (single isomer, unassigned) [compound 647] |
| 972 | COc1ccc(N2CC(=O)NC2=O)cc1C(=O)N[C@H]1[C@@H](C(=O)Nc2ccc(F)c(C(F)(F)F)c2)[C@H]2CC[C@@H]1/C2=C\C1CC1 [compound 697] |
| 20 | COc1ccc(-c2ccc(CC(=O)O)cc2)cc1C(=O)N[C@@H]1C2CCC(/C2=C/c2cnoc2)[C@@H]1C(=O)Nc1ccc(F)c(C(F)(F)F)c1 (some centres unmarked) [compound 188] |
| 6.3 | COc1ccc(C2CC3CNS(=O)(=O)C32)cc1C(=O)N[C@H]1[C@@H](C(=O)Nc2ccc(F)c(C(F)(F)F)c2)[C@H]2CC[C@@H]1/C2=C\C1CC1 (single isomer, unassigned) [compound 733] |
| 227 | COc1ccc(-c2cc(C(=O)O)ccc2F)cc1C(=O)N[C@@H]1C2CCC(/C2=C/C2CC2)[C@@H]1C(=O)NC1CCc2ccccc2C1 (some centres unmarked) [compound 299] |
| 710 | COc1cc(F)c(F)cc1C(=O)N[C@@H]1C2CCC(/C2=C/c2ccc(C#N)cc2)[C@@H]1C(=O)Nc1ccc(F)c(C(F)(F)F)c1 (some centres unmarked) [compound 62] |
| 2.1 | COc1ccc(C2=NOC3CC(CO)CC23)cc1C(=O)N[C@H]1[C@@H](C(=O)Nc2ccc(F)c(C(F)(F)F)c2)[C@H]2CC[C@@H]1/C2=C\C1CCCC1 (some centres unmarked) [compound 457] |
| 3.9 | COc1ccc(C2=NO[C@H]3C[C@H](CO)CN23)cc1C(=O)N[C@H]1[C@@H](C(=O)Nc2ccc(F)c(C(F)(F)F)c2)[C@H]2CC[C@@H]1/C2=C\C1CC1 [compound 854] |
| 2900 | COc1ccc(N2CCCC(C(=O)O)C2)cc1C(=O)N[C@@H]1C2CCC(C2=C(C)C)[C@@H]1C(=O)Nc1ccc(F)c(C(F)(F)F)c1 (some centres unmarked) [compound 142] |
| 2390 | COc1ccc(-c2cc(C(=O)O)ccc2F)cc1C(=O)N[C@@H]1C2CCC(/C2=C/C2CC2)[C@@H]1C(=O)NC1Cc2ccccc2C1 (some centres unmarked) [compound 308] |
| 1390 | COc1ccc(C2=NOC(CNC(=O)OC(C)(C)C)C2)cc1C(=O)N[C@@H]1C2CCC(/C2=C/C(F)(F)F)[C@@H]1C(=O)Nc1ccc(F)c(C(F)(F)F)c1 (some centres unmarked) [compound 403] |
| 2.7 | COc1ccc(C2=NO[C@@H]3C[C@@H](CO)CN23)cc1C(=O)N[C@H]1[C@@H](C(=O)Nc2ccc(F)c(C(F)(F)F)c2)[C@H]2CC[C@@H]1/C2=C\C1CC1 [compound 849] |
| 238 | COCCOc1ccc(C2=NOC3COCC23)cc1C(=O)N[C@H]1[C@@H](C(=O)Nc2ccc(F)c(C(F)(F)F)c2)[C@H]2CC[C@@H]1/C2=C\C1CC1 (single isomer, unassigned) [compound 644] |
| 11 | COc1ccc(-c2ccc(C(=O)O)cc2)cc1C(=O)N[C@@H]1C2CCC(/C2=C/c2ccccc2)[C@@H]1C(=O)Nc1ccc(F)c(C(F)(F)F)c1 (some centres unmarked) [Example 79] |
